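Grown in 96-well plates, cells were treated for 48 hours with each compound at five concentrations. Insufficient inhibition: endpoint recorded as highest concentration tested. GI50 is the concentration that inhibits growth by half.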 Activity calls are given as the source filed them. Rule as the data show it: active = GI50 up to about 1.1 µM and inactive = higher. Where a SMILES comes first, the peptide text is derived from it. The star is where a group is joined. Boc = CC(C)(C)OC(=O)*
Assays:
Experiment in all cases: inhibition of tumour cell growth, NCI panel, 48 h
NCI-H23 = tested on: NCI-H23
MDA-N = tested on: MDA-N
MDA-MB-435 = tested on: MDA-MB-435
SR = tested on: SR
T47D = tested on: T47D
A549 = tested on: A549
MCF7 = tested on: MCF7
EKVX = tested on: EKVX
CCRF-CEM = tested on: CCRF-CEM
SW-620 = tested on: SW-620
A498 = tested on: A498
K562 = tested on: K562
OVCAR-4 = tested on: OVCAR-4

| SMILES | GI50 (NCI-H23) | GI50 (MDA-N) | GI50 (MDA-MB-435) | GI50 (SR) | GI50 (T47D) | GI50 (A549) | GI50 (MCF7) | GI50 (EKVX) | GI50 (CCRF-CEM) | GI50 (SW-620) | GI50 (A498) | GI50 (K562) | GI50 (OVCAR-4) |
| --- | --- | --- | --- | --- | --- | --- | --- | --- | --- | --- | --- | --- | --- |
| C=Cc1cnc([N+](=O)[O-])n1C | 98.9 µM (inactive) | 40 µM (inactive) | 60.8 µM (inactive) | 20.7 µM (inactive) | 46.5 µM (inactive) | 56 µM (inactive) | 59 µM (inactive) | > 100 µM (inactive) | 46.1 µM (inactive) | 62.1 µM (inactive) | 34.3 µM (inactive) |  |  |
| C=CC[N+]12CN3CN(CN(C3)C1)C2 | 24.2 µM (inactive) | 17.3 µM (inactive) | 19.7 µM (inactive) |  | 27 µM (inactive) | 31.3 µM (inactive) | 30.1 µM (inactive) | 20.4 µM (inactive) | 5.83 µM (inactive) | 5.94 µM (inactive) | 32.8 µM (inactive) | 19.2 µM (inactive) | 26.2 µM (inactive) |
| S=C(Cc1ccc2c(c1)Sc1ccccc1O2)N1CCOCC1 | 46.2 µM (inactive) | 42.7 µM (inactive) | 29.4 µM (inactive) | 26.7 µM (inactive) | 38.7 µM (inactive) | 35.7 µM (inactive) | 36.7 µM (inactive) | 30.3 µM (inactive) |  | 43 µM (inactive) | 50.6 µM (inactive) | > 100 µM (inactive) | > 100 µM (inactive) |
| COP(C)(=O)/C(Cc1ccccc1)=N\O (centres undefined) | > 100 µM (inactive) | > 100 µM (inactive) | > 100 µM (inactive) | > 100 µM (inactive) | > 100 µM (inactive) | > 100 µM (inactive) | > 100 µM (inactive) |  | > 100 µM (inactive) | > 100 µM (inactive) |  | > 100 µM (inactive) | > 100 µM (inactive) |
| O=P1(O)c2ccccc2CS(=O)(=O)Cc2ccccc21 | > 100 µM (inactive) | > 100 µM (inactive) | > 100 µM (inactive) |  | > 100 µM (inactive) | > 100 µM (inactive) | > 100 µM (inactive) | > 100 µM (inactive) | > 100 µM (inactive) | > 100 µM (inactive) | > 100 µM (inactive) | > 100 µM (inactive) | > 100 µM (inactive) |
| Cc1ccc(S(=O)(=O)NC(=O)NC(CCCCNC(=N)N)C(=O)O)cc1 (centres undefined) | > 100 µM (inactive) | > 100 µM (inactive) |  | > 100 µM (inactive) | > 100 µM (inactive) | > 100 µM (inactive) | > 100 µM (inactive) |  | > 100 µM (inactive) | > 100 µM (inactive) |  | > 100 µM (inactive) | > 100 µM (inactive) |
| CC(=O)[C@@]1(c2ccccc2)CC2(CCN(C)CC2)O[C@H]1C | > 100 µM (inactive) | > 100 µM (inactive) | > 100 µM (inactive) |  | > 100 µM (inactive) | > 100 µM (inactive) |  | > 100 µM (inactive) |  | > 100 µM (inactive) | > 100 µM (inactive) | > 100 µM (inactive) | > 100 µM (inactive) |
| O=CNCNCCO | > 100 µM (inactive) |  |  | > 100 µM (inactive) | > 100 µM (inactive) | > 100 µM (inactive) | > 100 µM (inactive) | > 100 µM (inactive) | > 100 µM (inactive) | 46 µM (inactive) | > 100 µM (inactive) | > 100 µM (inactive) | > 100 µM (inactive) |
| O=C(N/N=C1\C(=O)Nc2ccc(Br)cc21)/C(O)=C/C(=O)c1ccc(Cl)cc1 | 71.9 µM (inactive) | 39.3 µM (inactive) | 39.9 µM (inactive) | < 0.01 µM (active) | 36.6 µM (inactive) | > 100 µM (inactive) | 44.4 µM (inactive) | 45.8 µM (inactive) |  | 40.8 µM (inactive) | 26.8 µM (inactive) | 8.77 µM (inactive) | > 100 µM (inactive) |
| Cc1nc2ccc(S(=O)(=O)Nc3nccs3)cc2c(=O)n1NS(=O)(=O)c1nccs1 | > 100 µM (inactive) | > 100 µM (inactive) | 40.3 µM (inactive) |  | > 100 µM (inactive) |  | 37.4 µM (inactive) | > 100 µM (inactive) | 86.7 µM (inactive) | 78.3 µM (inactive) | > 100 µM (inactive) | 69.7 µM (inactive) | > 100 µM (inactive) |
| CC(C)Oc1cccc(N2C(n3ccnc3)=Nc3ccncc3S2(=O)=O)c1 | 11.5 µM (inactive) | 12.8 µM (inactive) | 11.9 µM (inactive) | 3.78 µM (inactive) | 13.1 µM (inactive) | 20.4 µM (inactive) | 10.1 µM (inactive) | 16.2 µM (inactive) |  | 12.6 µM (inactive) | 17.8 µM (inactive) | 10.2 µM (inactive) | 14 µM (inactive) |
| CN1CN(c2ccccc2)C2(CCN(CCCC(=O)c3cccs3)CC2)C1=O | 51.2 µM (inactive) | 68.7 µM (inactive) |  | 53.5 µM (inactive) | 29 µM (inactive) | 29.3 µM (inactive) | 25.2 µM (inactive) | 31.5 µM (inactive) | 30.3 µM (inactive) | 42.2 µM (inactive) |  | 38.5 µM (inactive) |  |
| CCOC(=O)c1cn2c(n1)sc1cc([N+](=O)[O-])ccc12 | > 100 µM (inactive) |  | > 100 µM (inactive) | > 100 µM (inactive) | > 100 µM (inactive) | > 100 µM (inactive) | > 100 µM (inactive) | > 100 µM (inactive) | > 100 µM (inactive) | > 100 µM (inactive) | > 100 µM (inactive) | > 100 µM (inactive) | > 100 µM (inactive) |
| C(=C\Nc1ccc(Oc2ccccc2)cc1)/C=N/c1ccc(Oc2ccccc2)cc1 | 22.2 µM (inactive) | 16.2 µM (inactive) | 17.4 µM (inactive) | 19.4 µM (inactive) |  | 22.1 µM (inactive) | 16.9 µM (inactive) | 18.4 µM (inactive) | 15.3 µM (inactive) | 19 µM (inactive) | 16.2 µM (inactive) | 22.5 µM (inactive) | 17.1 µM (inactive) |
| O=C(O)C1(Cc2ccc3c(c2)CCC3)Cc2cc3c(cc2C1)CCC3 |  | > 100 µM (inactive) | > 100 µM (inactive) | > 100 µM (inactive) |  | > 100 µM (inactive) | > 100 µM (inactive) | > 100 µM (inactive) | > 100 µM (inactive) | > 100 µM (inactive) | > 100 µM (inactive) | > 100 µM (inactive) | > 100 µM (inactive) |
| CCCc1cc(=O)oc2c3c(c4c(c12)OC(C)(C)CC4)O[C@@H](C)[C@H](C)[C@H]3O | 12.2 µM (inactive) | 2.69 µM (inactive) | 5.94 µM (inactive) |  | 6.58 µM (inactive) | 10.8 µM (inactive) | 12.6 µM (inactive) | 12.2 µM (inactive) | 3.98 µM (inactive) | 15 µM (inactive) |  | 2.79 µM (inactive) | 10.1 µM (inactive) |
| COc1cc(C)cc(OC)c1/C=C/C(=O)O | > 100 µM (inactive) | > 100 µM (inactive) | > 100 µM (inactive) | > 100 µM (inactive) | > 100 µM (inactive) | > 100 µM (inactive) |  | > 100 µM (inactive) |  | > 100 µM (inactive) | > 100 µM (inactive) | > 100 µM (inactive) | > 100 µM (inactive) |
| CC1(c2nc3ccccc3[nH]2)CCC(C#N)C(C)(C)O1 (centres undefined) | > 100 µM (inactive) | > 100 µM (inactive) | > 100 µM (inactive) | > 100 µM (inactive) | > 100 µM (inactive) | > 100 µM (inactive) | > 100 µM (inactive) | > 100 µM (inactive) | > 100 µM (inactive) | > 100 µM (inactive) |  | > 100 µM (inactive) | > 100 µM (inactive) |
| COc1cc(CO)c(CC(=O)NCCCc2ccccc2)cc1OC | > 100 µM (inactive) | 34.1 µM (inactive) | 56 µM (inactive) | 9.06 µM (inactive) | 15 µM (inactive) | > 100 µM (inactive) |  | > 100 µM (inactive) | > 100 µM (inactive) | > 100 µM (inactive) | > 100 µM (inactive) | > 100 µM (inactive) | > 100 µM (inactive) |
| CS(=O)(=O)c1n[nH]c2nc(O)nc(O)c12 | > 10 µM (inactive) | > 10 µM (inactive) | > 10 µM (inactive) | > 10 µM (inactive) | > 10 µM (inactive) | > 10 µM (inactive) | > 10 µM (inactive) | > 10 µM (inactive) | > 10 µM (inactive) | > 10 µM (inactive) | > 10 µM (inactive) |  | > 10 µM (inactive) |
| BrP(NC1CCCCCC1)(c1ccccc1)(c1ccccc1)c1ccccc1 | 5.12 µM (inactive) |  | 2.15 µM (inactive) | 3.88 µM (inactive) | 1.93 µM (inactive) | 5.94 µM (inactive) | 2.5 µM (inactive) | 7.14 µM (inactive) | 2.97 µM (inactive) | 3.09 µM (inactive) | 0.986 µM (active) | 2.74 µM (inactive) |  |
| S=C(S)N1CCN(c2ccccc2)CC1 |  | > 100 µM (inactive) | > 100 µM (inactive) |  | > 100 µM (inactive) | > 100 µM (inactive) | > 100 µM (inactive) | > 100 µM (inactive) |  | 71.9 µM (inactive) | > 100 µM (inactive) | 52.6 µM (inactive) |  |
| COC(=O)[C@H](Cc1ccc(O)cc1)NC(=O)[C@H](Cc1ccc(O)cc1)NC(=O)OC(C)(C)C (Boc-Tyr-Tyr-OMe) | > 100 µM (inactive) | > 100 µM (inactive) |  |  |  | > 100 µM (inactive) | 43.8 µM (inactive) | > 100 µM (inactive) |  |  |  |  |  |
| Oc1cc(O)c2c(c1)O[C@H](c1ccc(O)c(O)c1)[C@@H](O)C2 [CIANIDANOL] | > 100 µM (inactive) | > 100 µM (inactive) | > 100 µM (inactive) | > 100 µM (inactive) | > 100 µM (inactive) | > 100 µM (inactive) | > 100 µM (inactive) | > 100 µM (inactive) | > 100 µM (inactive) | > 100 µM (inactive) |  | > 100 µM (inactive) | > 100 µM (inactive) |
